Source: patent US9120749B2, “Quinoline derivatives and MELK inhibitors containing the same” (ONCOTHERAPY SCIENCE, INC., priority 2010, dated 2015)

Key:
[1] = target: MELK (Homo sapiens, UniProt Q14680); assay: Kinase assay: MELK activity, phosphorylation of FITC-labeled histone H3 peptide measured by IMAP fluorescence polarization; format: biochemical; settings: 50 micro-M ATP, FITC-labeled histone H3 peptide substrate, IMAP fluorescence polarization; read-out: IC50 (μM) (kinase assay)
Experimental: MELK activity was determined in the presence or absence of compounds using fluorescein isothiocyanate-labeled (FITC-labeled) histone H3 peptide as a substrate. […] Test compounds were dissolved in DMSO at 12.5 mM and then serially diluted as the DMSO concentration in the assays to be 1%. […] The reaction was stopped by the addition of three fold assay volume of progressive binding solution. Following 0.5 hour incubation at room temperature, fluorescence polarization was measured by Wallac EnVision 2103 multilabel reader (PerkinElmer).

[2] = test system: T47D cells; assay: Cell-based assay: anti-proliferative activity, Cell Counting Kit-8, 72 hours (T47D); settings: Homo sapiens, T47D, 72 h
Experimental: (§1) To evaluate the expression status of MELK in several cell lines, western blot analysis was performed using crude cell lysate collected from those cells. Anti-MELK antibody (clone 31, BD Biosciences) was used to visualize the expression.
(§2) Active candidate inhibitors against MELK were evaluated for their target-specific cytotoxicity using T47D, A549, BT-549, and HT-1197 cells was used for negative control. 100 micro-L of cell suspension was seeded onto 96-well microtiter plate (ViewPlate-96FTC, PerkinElmer). The initial cell concentration of T47D, A549, BT-549, and HT-1197 were 3,000 cells/well, 2,000 cells/well and 2,500 cells/well, respectively. Cellular growth was determined using Cell Counting Kit-8 (DOJINDO) at 72 hours after the exposure of the candidate inhibitors. […] Accurate IC50 values were calculated as described previously.

[3] = test system: A549 cells; assay: Cell-based assay: anti-proliferative activity, Cell Counting Kit-8, 72 hours (A549); settings: Homo sapiens, A549, 72 h, 72 hours
Experimental: as §2, with “100” for “Active candidate inhibitors against MELK were evaluated for their target-specific cytotoxicity using T47D, A549, BT-549, and HT-1197 cells was used for negative control. 100”

[4] = test system: HT-1197 cells; assay: Cell-based assay: anti-proliferative activity, Cell Counting Kit-8, 72 hours (HT-1197, negative control without MELK expression); settings: Homo sapiens, HT1197, 72 h, HT1197 cells (negative control, no MELK expression), 72 hours
Experimental: as §1, §2

MELK, sequence (Q14680 whole entry, looked up): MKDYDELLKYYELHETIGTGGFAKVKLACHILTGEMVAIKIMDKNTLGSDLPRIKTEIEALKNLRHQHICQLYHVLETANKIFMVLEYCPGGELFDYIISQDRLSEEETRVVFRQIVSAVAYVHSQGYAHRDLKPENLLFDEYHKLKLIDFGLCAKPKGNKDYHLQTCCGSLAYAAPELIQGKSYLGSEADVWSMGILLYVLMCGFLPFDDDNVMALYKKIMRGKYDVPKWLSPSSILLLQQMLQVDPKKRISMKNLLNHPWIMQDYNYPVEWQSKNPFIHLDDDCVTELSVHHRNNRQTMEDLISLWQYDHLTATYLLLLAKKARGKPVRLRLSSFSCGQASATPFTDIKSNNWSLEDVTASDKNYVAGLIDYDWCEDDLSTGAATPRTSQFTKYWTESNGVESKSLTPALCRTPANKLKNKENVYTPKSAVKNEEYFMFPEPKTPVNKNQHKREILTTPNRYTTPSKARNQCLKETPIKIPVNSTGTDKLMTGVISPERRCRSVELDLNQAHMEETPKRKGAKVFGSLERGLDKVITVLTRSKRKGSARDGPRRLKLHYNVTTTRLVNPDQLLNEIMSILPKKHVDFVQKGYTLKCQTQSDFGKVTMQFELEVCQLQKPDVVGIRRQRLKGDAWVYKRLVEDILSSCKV

SMILES | IC50 [1] [µM] | IC50 [2] [µM] | IC50 [3] [µM] | IC50 [4] [µM]
CN(C)CC1CCN(c2c(C(=O)C3CCCC3)cnc3ccc(-c4cc(F)c(O)c(Cl)c4)cc23)CC1 [Example 384, (6-(3-chloro-5-fluoro-4-hydroxyphenyl)-4-(4-((dimethylamino)methyl)piperidin-1-yl)quinolin-3-yl)(cyclopentyl)methanone] | 0.0046 | 2 | 1.9 | 4
CCN(CC)C1CCC(Nc2c(C(=O)C3CCCC3)cnc3ccc(-c4ccc(O)c(Cl)c4)cc23)CC1 (centres unmarked) [Example 385, (6-(3-chloro-4-hydroxyphenyl)-4-(4-(diethylamino)cyclohexylamino)quinolin-3-yl)(cyclopentyl)methanone] | 0.019 | 1.7 | 0.94 | 1.9
CN(C)Cc1ccc(Nc2c(C(=O)C3CCCC3)cnc3ccc(-c4ccc(O)c(Cl)c4)cc23)cc1 [Example 387, (6-(3-chloro-4-hydroxyphenyl)-4-(4-((dimethylamino)methyl)phenylamino)quinolin-3-yl)(cyclopentyl)methanone] | 0.089 | 1.6 | 1 | 1.9
CN(C)CC1CCN(c2c(C(=O)C3CCCC3)cnc3ccc(-c4ccc(O)c(Cl)c4)cc23)CC1 [Example 389, (6-(3-chloro-4-hydroxyphenyl)-4-(4-((dimethylamino)methyl)piperidin-1-yl)quinolin-3-yl)(cyclopentyl)methanone] | 0.031 | 2.9 | 1.7 | 6.9
CN1CCN(C(=O)CNc2c(C(=O)C3CC3)cnc3ccc(-c4cc(F)c(O)c(Cl)c4)cc23)CC1 [Example 390, 2-(6-(3-chloro-5-fluoro-4-hydroxyphenyl)-3-(cyclopropanecarbonyl)quinolin-4-ylamino)-1-(4-methylpiperazin-1-yl)ethanone] | 0.025 | 2 | 2.7 | 10
COc1cc(-c2ccc3ncc(C(C)=O)c(Nc4ccc(CN(C)C)cc4)c3c2)cc(Cl)c1O [Example 391, 1-(6-(3-chloro-4-hydroxy-5-methoxyphenyl)-4-(4-((dimethylamino)methyl)phenylamino)quinolin-3-yl)ethanone] | 0.0037 | 0.12 | 1 | 4.2
CN1CCN(C(=O)CNc2c(C(=O)C3CC3)cnc3ccc(-c4ccc(O)c(Cl)c4)cc23)CC1 [Example 393, 2-(6-(3-chloro-4-hydroxyphenyl)-3-(cyclopropanecarbonyl)quinolin-4-ylamino)-1-(4-methylpiperazin-1-yl)ethanone] | 0.095 | 2.6 | 2.2 | –
O=C(c1cnc2ccc(-c3ccc(O)c(Cl)c3)cc2c1N1CCN(CCN2CCCC2)CC1)C1CC1 [Example 403, (6-(3-chloro-4-hydroxyphenyl)-4-(4-(2-(pyrrolidin-1-yl)ethyl)piperazin-1-yl)quinolin-3-yl)(cyclopropyl)methanone] | 0.011 | 4.5 | 1.3 | 10
COc1cc(-c2ccc3ncc(C(=O)C4CC4)c(Nc4ccc(CN5CCN(C)CC5)cc4)c3c2)ccc1O [Example 405, cyclopropyl(6-(4-hydroxy-3-methoxyphenyl)-4-(4-((4-methylpiperazin-1-yl)methyl)phenylamino)quinolin-3-yl)methanone] | 0.017 | 0.76 | 0.8 | 3.5
CN1CCN(Cc2ccc(Nc3c(C(=O)C4CC4)cnc4ccc(-c5ccc(O)c(Cl)c5)cc34)cc2)CC1 [Example 406, (6-(3-chloro-4-hydroxyphenyl)-4-(4-((4-methylpiperazin-1-yl)methyl)phenylamino)quinolin-3-yl)(cyclopropyl)methanone] | 0.019 | 1.3 | 0.49 | 3.4
CS(=O)(=O)c1cnc2ccc(-c3cc(F)c(O)c(Cl)c3)cc2c1N1CCC(CN2CCCC2)CC1 [Example 407, 2-chloro-6-fluoro-4-(3-(methylsulfonyl)-4-(4-(pyrrolidin-1-ylmethyl)piperidin-1-yl)quinolin-6-yl)phenol] | 0.0051 | 0.75 | 3.8 | 6.5
CS(=O)(=O)c1cnc2ccc(-c3ccc(O)c(Cl)c3)cc2c1N1CCC(CN2CCCC2)CC1 [Example 408, 2-chloro-4-(3-(methylsulfonyl)-4-(4-(pyrrolidin-1-ylmethyl)piperidin-1-yl)quinolin-6-yl)phenol] | 0.009 | 8.2 | 3.2 | 9.5
COc1cc(-c2ccc3ncc(S(C)(=O)=O)c(Nc4ccc(CN(C)C)cc4)c3c2)cc(Cl)c1O [Example 410, 2-chloro-4-(4-(4-((dimethylamino)methyl)phenylamino)-3-(methylsulfonyl)quinolin-6-yl)-6-methoxyphenol] | 0.0068 | 0.58 | 1.2 | 6.2
CN(C)Cc1ccc(Nc2c(S(C)(=O)=O)cnc3ccc(-c4ccc(O)c(Cl)c4)cc23)cc1 [Example 411, 2-chloro-4-(4-(4-((dimethylamino)methyl)phenylamino)-3-(methylsulfonyl)quinolin-6-yl)phenol] | 0.0091 | 0.29 | 0.37 | 0.63
COc1cc(-c2ccc3ncc(S(C)(=O)=O)c(N4CCC(CN5CCCC5)CC4)c3c2)cc(Cl)c1O [Example 412, 2-chloro-6-methoxy-4-(3-(methylsulfonyl)-4-(4-(pyrrolidin-1-ylmethyl)piperidin-1-yl)quinolin-6-yl)phenol] | 0.002 | 1.4 | 0.58 | 2.5
CC(=O)c1cnc2ccc(-c3cnc(C#N)nc3)cc2c1Nc1ccc(CN2CCCC2)cc1 [Example 413, 5-(3-acetyl-4-(4-(pyrrolidin-1-ylmethyl)phenylamino)quinolin-6-yl)pyrimidine-2-carbonitrile] | 0.0029 | 0.35 | 1.7 | 1.2
CC(=O)c1cnc2ccc(-c3cnc(C#N)nc3)cc2c1Nc1ccc(CN(C)C)cc1 [Example 414, 5-(3-acetyl-4-(4-((dimethylamino)methyl)phenylamino)quinolin-6-yl)pyrimidine-2-carbonitrile] | – | 0.24 | 1.5 | 0.8
CN(C)Cc1ccc(Nc2c(C(=O)C3CC3)cnc3ccc(-c4cc(Cl)c(O)c(Cl)c4)cc23)nc1 [Example 417, cyclopropyl(6-(3,5-dichloro-4-hydroxyphenyl)-4-(5-((dimethylamino)methyl)pyridin-2-ylamino)quinolin-3-yl)methanone] | 0.0099 | 1.7 | 1.8 | 22
COc1cc(-c2ccc3ncc(C(C)=O)c(Nc4ccc(CN5CCCC5)cc4)c3c2)cc(Cl)c1O [Example 419, 1-(6-(3-chloro-4-hydroxy-5-methoxyphenyl)-4-(4-(pyrrolidin-1-ylmethyl)phenylamino)quinolin-3-yl)ethanone] | – | 0.99 | 0.84 | 5.1
COc1cc(-c2ccc3ncc(S(C)(=O)=O)c(N[C@H]4CC[C@H](CN(C)C)CC4)c3c2)cc(Cl)c1O [Example 422] | 0.0041 | 0.7 | 0.65 | 4.4
CN(C)C[C@H]1CC[C@H](Nc2c(S(C)(=O)=O)cnc3ccc(-c4ccc(O)c(Cl)c4)cc23)CC1 [Example 424] | 0.013 | 0.43 | 0.79 | 1.1
CN(C)C[C@H]1CC[C@H](Nc2c(C(=O)C3CC3)cnc3ccc(-c4cnc(C#N)nc4)cc23)CC1 [Example 426] | 0.0025 | 0.43 | 1.5 | 3.7
COc1cc(-c2ccc3ncc(C#N)c(N4CCC(CN5CCCC5)CC4)c3c2)cc(Cl)c1O [Example 428, 6-(3-chloro-4-hydroxy-5-methoxyphenyl)-4-(4-(pyrrolidin-1-ylmethyl)piperidin-1-yl)quinoline-3-carbonitrile] | 0.0037 | 7.6 | 2.6 | 13
COc1cc(-c2ccc3ncc(C(=O)C4CC4)c(Nc4ccc(C5CCCN5C)cn4)c3c2)cc(Cl)c1O (centres unmarked) [Example 444] | – | 6.8 | 7.6 | 10
Cc1cc(O)c(Cl)cc1-c1ccc2ncc(C(=O)C3CC3)c(N3CCC(CN(C)C)CC3)c2c1 [Example 448] | – | 2 | 1.7 | 7.9
